Each block holds one compound with its values, some of them ahead of it.
Target: T1, Recombinant human calpain I (Homo sapiens, UniProt P07384)
T1 construct: made in house
T1 sequence (P07384 1-714): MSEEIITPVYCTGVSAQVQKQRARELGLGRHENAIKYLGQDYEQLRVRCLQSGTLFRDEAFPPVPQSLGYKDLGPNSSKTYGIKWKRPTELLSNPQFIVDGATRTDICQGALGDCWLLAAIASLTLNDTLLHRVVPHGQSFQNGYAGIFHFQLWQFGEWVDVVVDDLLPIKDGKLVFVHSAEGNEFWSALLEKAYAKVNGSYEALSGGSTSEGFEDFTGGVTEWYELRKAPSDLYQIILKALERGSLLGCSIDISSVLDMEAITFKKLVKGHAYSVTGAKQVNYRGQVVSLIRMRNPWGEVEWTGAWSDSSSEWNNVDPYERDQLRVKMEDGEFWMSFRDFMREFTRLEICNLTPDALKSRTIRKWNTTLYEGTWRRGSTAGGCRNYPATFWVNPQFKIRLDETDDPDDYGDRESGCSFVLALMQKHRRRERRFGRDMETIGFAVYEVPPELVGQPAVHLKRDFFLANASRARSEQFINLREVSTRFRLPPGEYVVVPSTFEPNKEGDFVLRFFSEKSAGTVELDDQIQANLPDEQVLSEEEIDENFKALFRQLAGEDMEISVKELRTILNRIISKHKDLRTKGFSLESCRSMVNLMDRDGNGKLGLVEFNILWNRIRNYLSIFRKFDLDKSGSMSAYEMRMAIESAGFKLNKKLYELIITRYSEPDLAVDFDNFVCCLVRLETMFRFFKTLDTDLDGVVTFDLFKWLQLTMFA
T1 sequence (P04632 1-268 partner): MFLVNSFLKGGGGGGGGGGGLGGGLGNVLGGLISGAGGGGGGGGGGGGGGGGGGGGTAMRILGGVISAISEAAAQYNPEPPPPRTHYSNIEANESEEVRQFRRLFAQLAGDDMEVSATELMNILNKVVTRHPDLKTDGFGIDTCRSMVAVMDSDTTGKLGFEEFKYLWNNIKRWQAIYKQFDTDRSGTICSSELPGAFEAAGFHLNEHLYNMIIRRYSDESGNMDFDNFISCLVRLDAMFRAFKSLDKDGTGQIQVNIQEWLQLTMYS
Test: Inhibition of cysteine protease activity: calpain I, Succ-Leu-Tyr-MNA substrate hydrolysis
Assay type: biochemical
Experimental: To evaluate inhibitory activity, stock solutions (40 times concentrated) of each compound to be tested were prepared in 100% anhydrous DMSO and 5 μl of each inhibitor preparation were aliquoted into each of three wells of a 96-well plate. Recombinant human calpain I, prepared by the method of Meyer et al. (Biochem. J. 1996, 314: 511–519; incorporated herein by reference in its entirety), was diluted into assay buffer (i.e., 50 mM Tris, 50 mM NaCl, 1 mM EDTA, 1 mM EGTA, and 5 mM β-mercaptoethanol, pH 7.5, including 0.2 mM Succ-Leu-Tyr-MNA), and 175 μl was aliquoted into the same wells containing the independent inhibitor stocks as well as to positive control wells containing 5 μl DMSO, but no compound. To start the reaction, 20 μl of 50 mM CaCl2 in assay buffer was added to all wells of the plate, excepting three, which were used as background signal baseline controls. Substrate hydrolysis was monitored every 5 minutes for a total of 30 minutes. Substrate hydrolysis in the absence of inhibitor was linear for up to 15 minutes.
Inhibition of calpain I activity was calculated as the percent decrease in the rate of substrate hydrolysis in the presence of inhibitor relative to the rate in its absence. Comparison between the inhibited and control rates was made within the linear range for substrate hydrolysis. The IC50s of inhibitors (concentration yielding 50% inhibition) were determined from the percent decrease in rates of substrate hydrolysis in the presence of five to seven different concentrations of the test compound. The results were plotted as percent inhibition versus log inhibitor concentration, and the IC50 was calculated by fitting the data to the four-parameter logistic equation shown below using the program GraphPad Prism (GraphPad Software, Inc., San Diego, Calif.). y=d+[(a−d)/(1+(x/c)^b)]
The parameters a, b, c, and d are defined as follows: a is % inhibition in the absence of inhibitor, b is the slope, c is the IC50, and d is the % inhibition at an infinite concentration of inhibitor.

[1] = Table 5, achiral P2 mimetic α-ketoamides

IC50 [1]: 29 nM
Compound: O=C(NCCNS(=O)(=O)c1ccc(-c2cccc(CN3CCOCC3)c2)s1)C(=O)[C@H](Cc1ccccc1)NC(=O)c1c(Cl)cccc1Cl [Compound 131]

IC50 [1]: > 1000 nM
Compound: O=C(NCCNS(=O)(=O)c1ccc(-c2ccccn2)s1)C(=O)[C@H](Cc1ccccc1)NC(=O)c1ccc2c(c1)OCO2 [Compound 123]

IC50 [1]: 590 nM
Compound: CC(C)CC(=O)N[C@@H](Cc1ccccc1)C(=O)C(=O)NCCNS(=O)(=O)c1ccc(-c2ccccn2)s1 [Compound 144]

IC50 [1]: 65 nM
Compound: COc1ccc(Cl)c(C(=O)N[C@@H](Cc2ccccc2)C(=O)C(=O)NCCNS(=O)(=O)c2ccc(-c3ccccn3)s2)c1 [Compound 125]

IC50 [1]: 4000 nM
Compound: COc1cccc(OC)c1C(=O)N[C@@H](Cc1ccccc1)C(=O)C(=O)NCCNS(=O)(=O)c1ccc(-c2ccon2)s1 [Compound 138]

IC50 [1]: 20 nM
Compound: O=C(NCCNS(=O)(=O)c1ccc(-c2ccccn2)s1)C(=O)[C@H](Cc1ccccc1)NC(=O)c1c(F)cccc1F [Compound 120]

IC50 [1]: 36 nM
Compound: O=C(NCCNS(=O)(=O)c1ccc(-c2ccccn2)s1)C(=O)[C@H](Cc1ccccc1)NC(=O)c1c(Cl)cccc1Cl [Compound 118]

IC50 (Table 4, α-ketoamides): 22 nM
Compound: COCCN(CCOC)Cc1cccc(-c2ccc(S(=O)(=O)NCCNC(=O)C(=O)[C@H](Cc3ccccc3)NC(=O)[C@@H](COCc3ccccc3)NS(C)(=O)=O)s2)c1 [Compound 109]

IC50 [1]: 420 nM
Compound: N#Cc1cccc(-c2ccc(S(=O)(=O)NCCNC(=O)C(=O)[C@H](Cc3ccccc3)NC(=O)CCC3CCCC3)s2)c1 [Compound 151]

IC50 [1]: 145 nM
Compound: CCc1cccc(CC)c1C(=O)N[C@@H](Cc1ccccc1)C(=O)C(=O)NCCNS(=O)(=O)c1ccc(-c2ccon2)s1 [Compound 137]

IC50 (Table 4, α-ketoamides): 44 nM
Compound: CS(=O)(=O)N[C@H](COCc1ccccc1)C(=O)N[C@@H](Cc1ccccc1)C(=O)C(=O)NCCNS(=O)(=O)c1ccc(-c2cccc(CN3CCC3)c2)s1 [Compound 106]

IC50 [1]: 800 nM
Compound: O=C(NCCNS(=O)(=O)c1ccc(-c2ccccn2)s1)C(=O)[C@H](Cc1ccccc1)NC(=O)c1ccccc1 [Compound 117]

Continued, compound first:

Compound: CS(=O)(=O)N[C@H](COCc1ccccc1)C(=O)N[C@@H](Cc1ccccc1)C(=O)C(=O)NCCNS(=O)(=O)c1ccc(-c2cccc(CN3CCOCC3)c2)s1 [Compound 56]
IC50 (Table 4, α-ketoamides): 18 nM

Compound: CS(=O)(=O)N[C@H](COCc1ccccc1)C(=O)N[C@@H](Cc1ccccc1)C(=O)C(=O)NCCNS(=O)(=O)c1ccc(-c2ccc(N)cc2)cc1 [Compound 40]
IC50 (Table 2, linear α-ketoamides): 63 nM

Compound: CS(=O)(=O)N[C@H](COCc1ccccc1)C(=O)N[C@@H](Cc1ccccc1)C(=O)C(=O)NCCNS(=O)(=O)c1ccc(-c2cccc(C#N)c2)s1 [Compound 104]
IC50 (Table 4, α-ketoamides): 10 nM

Compound: C[C@H](CNC(=O)C(=O)[C@H](Cc1ccccc1)NC(=O)[C@@H](COCc1ccccc1)NS(C)(=O)=O)NS(=O)(=O)c1ccccc1 [Compound 48]
IC50 (Table 3, branched-chain α-ketoamides): 43 nM

Compound: CC(=O)Nc1cccc(-c2ccc(S(=O)(=O)NCCNC(=O)C(=O)C(Cc3ccccc3)NC(=O)C(COCc3ccccc3)NS(C)(=O)=O)s2)c1 (mixture of isomers) [Compound 76]
IC50 (Table 4, α-ketoamides): 11 nM

Compound: CS(=O)(=O)N[C@H](COCc1ccccc1)C(=O)N[C@@H](Cc1ccccc1)C(=O)C(=O)NCCCS(=O)(=O)N1CCOCC1 [Compound 81]
IC50 (Table 4, α-ketoamides): 124 nM

Compound: CS(=O)(=O)NCCNC(=O)C(=O)[C@H](Cc1ccccc1)NC(=O)[C@@H](COCc1ccccc1)NS(C)(=O)=O [Compound 35]
IC50 (Table 2, linear α-ketoamides): 91 nM

Compound: CS(=O)(=O)N[C@H](COCc1ccccc1)C(=O)N[C@@H](Cc1ccccc1)C(=O)C(=O)NCCNS(=O)(=O)c1ccc(N)cc1 [Compound 22]
IC50 (Table 2, linear α-ketoamides): 42 nM

Compound: CS(=O)(=O)N[C@H](COCc1ccccc1)C(=O)N[C@@H](Cc1ccccc1)C(=O)C(=O)NCCNS(=O)(=O)c1ccc(-c2cccc(CN3CCCCC3)c2)s1 [Compound 95]
IC50 (Table 4, α-ketoamides): 30 nM

Compound: CC(C)C[C@H](NC(=O)OCc1ccccc1)C(=O)N[C@@H](Cc1ccccc1)C(=O)C(=O)NCCNS(=O)(=O)c1ccccc1 [Compound 17]
IC50 (Table 2, linear α-ketoamides): 11 nM

Compound: CN(CCNC(=O)C(=O)[C@H](Cc1ccccc1)NC(=O)[C@@H](COCc1ccccc1)NS(C)(=O)=O)S(=O)(=O)c1ccccc1 [Compound 50]
Calpain percent inhibition, value in brackets marked ** (Table 3, concentration not given): (100%)

Compound: CS(=O)(=O)N[C@H](COCc1ccccc1)C(=O)N[C@@H](Cc1ccccc1)C(=O)C(=O)NCCNS(=O)(=O)c1ccc(-c2ccon2)s1 [Compound 32]
IC50 (Table 2, linear α-ketoamides): 10 nM

Compound: CS(=O)(=O)N[C@H](COCc1ccccc1)C(=O)N[C@@H](Cc1ccccc1)C(=O)C(=O)NCCCS(=O)(=O)NN1CCOCC1 [Compound 80]
IC50 (Table 4, α-ketoamides): 169 nM

Compound: CN(CCNC(=O)C(=O)[C@H](Cc1ccccc1)NC(=O)[C@@H](COCc1ccccc1)NS(C)(=O)=O)S(=O)(=O)c1ccc(-c2cccc(C=O)c2)s1 [Compound 65]
IC50 (Table 4, α-ketoamides): 19 nM

Compound: CS(=O)(=O)N[C@H](COCc1ccccc1)C(=O)N[C@@H](Cc1ccccc1)C(=O)C(=O)NCCNC(=NC#N)Oc1ccccc1 [Compound 53]
IC50 (Table 4, α-ketoamides): 15 nM

Compound: CC(=O)Nc1nc(C)c(S(=O)(=O)NCCNC(=O)C(=O)[C@H](Cc2ccccc2)NC(=O)[C@@H](COCc2ccccc2)NS(C)(=O)=O)s1 [Compound 96]
IC50 (Table 4, α-ketoamides): 23 nM

Compound: CS(=O)(=O)N[C@H](COCc1ccccc1)C(=O)N[C@@H](Cc1ccccc1)C(=O)C(=O)NCCNS(=O)(=O)c1ccc(-c2ccccc2C=O)s1 [Compound 98]
IC50 (Table 4, α-ketoamides): 24 nM

Compound: CS(=O)(=O)NC(COCc1ccccc1)C(=O)NC(Cc1ccccc1)C(=O)C(=O)NCCNS(=O)(=O)c1ccc(-c2cccc(N)c2)s1 (mixture of isomers) [Compound 44]
IC50 (Table 2, linear α-ketoamides): 31 nM

Compound: COCC1CCCN1Cc1ccc(S(=O)(=O)NCCNC(=O)C(=O)[C@H](Cc2ccccc2)NC(=O)[C@@H](COCc2ccccc2)NS(C)(=O)=O)cc1 (stereo partly shown) [Compound 91]
IC50 (Table 4, α-ketoamides): 19 nM

Compound: CS(=O)(=O)N[C@H](COCc1ccccc1)C(=O)N[C@@H](Cc1ccccc1)C(=O)C(=O)NCCNS(=O)(=O)c1ccc(-c2ccc(CN3CCOCC3)cc2)s1 [Compound 94]
IC50 (Table 4, α-ketoamides): 22 nM

Compound: COc1ccc(-c2ccc(S(=O)(=O)NCCNC(=O)C(=O)C(Cc3ccccc3)NC(=O)C(COCc3ccccc3)NS(C)(=O)=O)s2)cc1 (mixture of isomers) [Compound 82]
IC50 (Table 4, α-ketoamides): 13 nM

Compound: CS(=O)(=O)N[C@H](COCc1ccccc1)C(=O)N[C@@H](Cc1ccccc1)C(=O)C(=O)NCCNS(=O)(=O)c1ccccc1 [Compound 9]
IC50 (Table 2, linear α-ketoamides): 16 nM

Compound: CS(=O)(=O)N[C@H](COCc1ccccc1)C(=O)N[C@@H](Cc1ccccc1)C(=O)C(=O)NCCS(=O)(=O)Nc1ccccc1 [Compound 60]
IC50 (Table 4, α-ketoamides): 47 nM

Compound: CS(=O)(=O)N[C@H](COCc1ccccc1)C(=O)N[C@@H](Cc1ccccc1)C(=O)C(=O)NCCNS(=O)(=O)c1ccc(-c2ccccc2CN2CCOCC2)s1 [Compound 93]
IC50 (Table 4, α-ketoamides): 40 nM

Compound: CC(=O)c1cccc(-c2ccc(S(=O)(=O)NCCNC(=O)C(=O)C(Cc3ccccc3)NC(=O)C(COCc3ccccc3)NS(C)(=O)=O)s2)c1 (mixture of isomers) [Compound 77]
IC50 (Table 4, α-ketoamides): 10 nM

Compound: CS(=O)(=O)N[C@H](COCc1ccccc1)C(=O)N[C@@H](Cc1ccccc1)C(=O)C(=O)NC1CCC(=O)NC1 (stereo partly shown) [Compound 64]
Percent inhibition @ 0.1 μM (Calpain) (Table 4, 0.1 μM compound, value in brackets marked *): (33)* Percent

Compound: CS(=O)(=O)N[C@H](COCc1ccccc1)C(=O)N[C@@H](Cc1ccccc1)C(=O)C(=O)NCCNS(=O)(=O)CCc1ccncc1 [Compound 46]
IC50 (Table 2, linear α-ketoamides): 144 nM

Compound: CS(=O)(=O)N[C@H](COCc1ccccc1)C(=O)N[C@@H](Cc1ccccc1)C(=O)C(=O)NCCNS(=O)(=O)c1ccc(-c2cccc(C=O)c2)s1 [Compound 52]
IC50 (Table 4, α-ketoamides): 5 nM

Reference: US7001907B2, “Peptide-containing α-ketoamide cysteine and serine protease inhibitors” (Cephaon, Inc., priority 1997, dated 2006)
